The assay concerns the target serotonin transporter (SERT) (Rattus norvegicus, UniProt P31652).

Molecules are shown by their SMILES.

Chain of serotonin transporter (SERT) (P31652 whole entry): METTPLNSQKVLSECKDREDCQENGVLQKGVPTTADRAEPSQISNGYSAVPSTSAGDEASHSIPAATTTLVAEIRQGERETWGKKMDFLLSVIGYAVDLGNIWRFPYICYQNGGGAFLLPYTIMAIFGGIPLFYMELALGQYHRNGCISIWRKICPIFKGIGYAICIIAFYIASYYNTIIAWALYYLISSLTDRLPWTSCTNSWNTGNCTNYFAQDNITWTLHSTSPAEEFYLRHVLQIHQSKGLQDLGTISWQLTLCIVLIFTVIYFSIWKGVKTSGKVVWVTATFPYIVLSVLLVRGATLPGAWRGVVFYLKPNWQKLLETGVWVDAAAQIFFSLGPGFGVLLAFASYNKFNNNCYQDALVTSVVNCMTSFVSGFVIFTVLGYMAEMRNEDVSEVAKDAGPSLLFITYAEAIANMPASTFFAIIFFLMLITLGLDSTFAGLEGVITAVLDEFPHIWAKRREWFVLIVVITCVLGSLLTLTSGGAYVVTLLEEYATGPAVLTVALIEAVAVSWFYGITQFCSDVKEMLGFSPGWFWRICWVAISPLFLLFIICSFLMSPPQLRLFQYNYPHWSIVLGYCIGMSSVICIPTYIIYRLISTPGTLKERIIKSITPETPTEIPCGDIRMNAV

What is called Km is the concentration of substrate that gives half-maximal velocity. As to `NCCc1c[nH]c2ccc(O)cc12` [Serotonin], the Km is 2.21 µM.

Values taken from article PMC7770045 (Biochemical pharmacology, 2020).
